Experimental data reported in PMC8457056, “Remodeling of the Fibrillation Pathway of α‐Synuclein by Interaction with Antimicrobial Peptide LL‐III” (Chemistry (Weinheim an Der Bergstrasse, Germany), 2021).

Test: circular dichroism spectroscopy of LL-III
Assay type: physicochemical
Details: 300 μM LL-III; 20 mM sodium acetate, pH 5.0, 25 °C; minimum around 195 nm
Protocol: Figure 2 A) Binding isotherm obtained by means of steady‐state fluorescence anisotropy measurements. The experiment was performed by titrating a 4 μM solution of carboxyfluorescein‐labeled LL‐III with a solution of α‐Syn in the range 0–100 μM. The red line represents the best fit according to a 1 : 1 binding model.[29] The fluorophore was covalently attached to the N‐terminus of the peptide. B) Circular dichroism (CD) spectra of LL‐III (black solid line), α‐Syn (red solid line,) and of a mixture of LL‐III and α‐Syn (blue solid line) recorded at day 0. Shown are also spectra of the LL‐III/α‐Syn mixture recorded after 5 days (dashed blue line) and after 10 days (dotted blue lines). Here, the concentration of LL‐III was 300 μM, and the concentration of α‐Syn was 30 μM. […]
Next, by means of circular dichroism (CD) spectroscopy, we explored the effect of LLPS formation and LL‐III partitioning on the conformation of the protein. […] In support of this conclusion, we note that the spectrum of the mixture is superimposable with the sum of the spectra of LL‐III and α‐Syn, which were recorded separately (Figure S6). The time evolution of the CD spectrum of the LL‐III/α‐Syn mixture was also recorded after 5 and 10 days (Figure 2B). […]
µM) and following the anisotropy changes of the Trp residue. […] The anisotropy was evaluated at 354 nm which corresponds to the maximum of emission of the free peptide. […]

NH2-VNWKKIL GKIIKVVK -CONH2 [LL‐III]
conformation (CD): random‐coiled conformation in solution
